Patent publication US20230265116A1, “DEGRADATION OF (EGFR) BY CONJUGATION OF EGFR INHIBITORS WITH E3 LIGASE LIGAND AND METHODS OF USE” (BEIGENE, LTD., priority 2020, published 2023)
Like-named read-outs stand apart in the source and are kept apart here.

Legend:
Format in all cases: cell-based
[1] = target: T1, EGFR L858R/T790M/C797S (BaF3-LTC cells) (Homo sapiens, UniProt P00533, C797S/L858R/T790M); assay: EGFR degradation HTRF assay, BaF3-LTC cells; settings: BaF3-LTC, 16h treatment; for Dmax: maximum percentage of degradation, read-out: LTC Dmax (%); for DC50: read-out: LTC DC50
T1 construct: expressed in transfected cells; host or cells: BaF3
How it was run: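 EGFR remaining after a 16 h, 37 °C exposure (8 doses, 5-fold steps from 10 uM final, 0.2% DMSO) was quantified by HTRF antibodies in cell lysate. Percent inhibition relative to DMSO control was fitted by four-parameter logistic to give DC50; Dmax denotes maximal degradation.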

[2] = target: T2, EGFR (HCC827 cells) (Homo sapiens, UniProt P00533, DEL746-750); assay: EGFR degradation HTRF assay, HCC827 cells; settings: HCC827, 16h treatment; for Dmax: maximum percentage of degradation
T2 construct: endogenous in cells; host or cells: HCC827
How it was run: (§1)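 Cells treated 16 h at 37 °C, 5% CO2 in medium with 0.2% DMSO; top final concentration 10 uM, 5-fold dilution, 8 doses. Lysates read by HTRF (665/620 nm); degradation % versus DMSO high control, DC50 from four-parameter fit, Dmax as maximal degradation.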

[3] = target: T3, EGFR L858R/T790M (H1975-clone #36, homozygous) (Homo sapiens, UniProt P00533, L858R/T790M); assay: EGFR degradation HTRF assay, H1975-clone #36 cells; settings: H1975 #36, 16h treatment; for Dmax: NCI-H1975, maximum percentage of degradation
T3 construct: designed to specifically target WT EGFR but preserve the L858R/T790M copy; host or cells: H1975-clone #36
How it was run: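 Eight-point, 5-fold series starting at 10 uM (0.2% DMSO) applied for 16 h, 37 °C, to a WT-EGFR-knockout H1975 clone carrying only L858R/T790M. Lysates read by HTRF overnight. Degradation percentage relative to DMSO control fitted for DC50, with Dmax as maximum degradation.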

[4] = target: T4, EGFR WT (BaF3 WT cells) (Homo sapiens, UniProt P00533); assay: EGFR degradation HTRF assay, BaF3 WT cells
T4 construct: expressed in transfected cells; host or cells: BaF3
Procedure: BaF3 WT(wild type), BaF3-LTC(L858R/T790M/C797S) and BaF3-DTC(Del19/T790M/C797S) cells are treated with compounds diluted in 0.2% DMSO cell culture medium and incubate for 16h, 37° C., 5% CO2, H1975-#36, H1975-#28, H1975-#23 and HCC827 cells are treated with compounds diluted in 0.2% DMSO cell culture medium on day 2, incubate for 16h, 37° C., 5% CO2.the final concentriation of compounds in all assay is start with 10 uM, 5-fold dilution, total 8 doses were included.
After 16h treatment, add HTRF lysis buffer to each well; seal the plate and incubate 1 hour at room temperature on a plate shaker; Once the cells are lysed, 16 μL of cell lysate are transferred to a PE 384-well HTRF detection plate; 4 μL of pre-mixed HTRF antibodies are added to each well; Cover the plate with a plate sealer, spin 1000 rpm for 1 min, Incubate overnight at room temperature; Read on BMG PheraStar with HTRF protocol (337 nm-665 nm-620 nm).
The inhibition (degradation) percentage of the compound was calculated by the following equation: Inhibition percentage of Compound=100-100×(Signal-low control)/(High control-low control), wherein signal=each test compound group
High control=Cell group with added DMSO and without compound, indicating microplate readings without EGFR degradation;
Dmax is the maximum percentage of inhibition (degradation).
The IC50 (DC50) value of a compound can be obtained by fitting the following equation
Y=Bottom+(TOP−Bottom)/(1+((IC50/X)^hillslope))
Wherein, X and Y are known values, and IC50, Hillslope, Top and Bottom are the parameters obtained by fitting with software. Y is the inhibition percentage (calculated from the equation), X is the concentration of the compound; IC50 is the concentration of the compound when the 50% inhibition is reached. The smaller the IC50 value is, the stronger the inhibitory ability of the compound is. Vice versa, the higher the IC50 value is, the weaker the inhibitory ability of the compound is; Hillslope represents the slope of the fitted curve, generally around 1*; Bottom represents the minimum value of the curve obtained by data fitting, which is generally 0%±20%; Top represents the maximum value of the curve obtained by data fitting, which is generally 100%±20%. The experimental data were fitted by calculating and analyzing with Dotmatics data analysis software.

[5] = tested on: EGFR Del19/T790M/C797S (BaF3-DTC cells); assay: EGFR degradation HTRF assay, BaF3-DTC cells; settings: for DTC Dmax (%): maximum percentage of degradation
How it was run: as §1

[6] = BaF3 WT, 16h treatment, maximum percentage of degradation, read-out: WT Dmax (%)
[7] = 16h treatment, read-out: DTC DC50

T1 sequence (P00533 25-1210 T790M/C797S/L858R): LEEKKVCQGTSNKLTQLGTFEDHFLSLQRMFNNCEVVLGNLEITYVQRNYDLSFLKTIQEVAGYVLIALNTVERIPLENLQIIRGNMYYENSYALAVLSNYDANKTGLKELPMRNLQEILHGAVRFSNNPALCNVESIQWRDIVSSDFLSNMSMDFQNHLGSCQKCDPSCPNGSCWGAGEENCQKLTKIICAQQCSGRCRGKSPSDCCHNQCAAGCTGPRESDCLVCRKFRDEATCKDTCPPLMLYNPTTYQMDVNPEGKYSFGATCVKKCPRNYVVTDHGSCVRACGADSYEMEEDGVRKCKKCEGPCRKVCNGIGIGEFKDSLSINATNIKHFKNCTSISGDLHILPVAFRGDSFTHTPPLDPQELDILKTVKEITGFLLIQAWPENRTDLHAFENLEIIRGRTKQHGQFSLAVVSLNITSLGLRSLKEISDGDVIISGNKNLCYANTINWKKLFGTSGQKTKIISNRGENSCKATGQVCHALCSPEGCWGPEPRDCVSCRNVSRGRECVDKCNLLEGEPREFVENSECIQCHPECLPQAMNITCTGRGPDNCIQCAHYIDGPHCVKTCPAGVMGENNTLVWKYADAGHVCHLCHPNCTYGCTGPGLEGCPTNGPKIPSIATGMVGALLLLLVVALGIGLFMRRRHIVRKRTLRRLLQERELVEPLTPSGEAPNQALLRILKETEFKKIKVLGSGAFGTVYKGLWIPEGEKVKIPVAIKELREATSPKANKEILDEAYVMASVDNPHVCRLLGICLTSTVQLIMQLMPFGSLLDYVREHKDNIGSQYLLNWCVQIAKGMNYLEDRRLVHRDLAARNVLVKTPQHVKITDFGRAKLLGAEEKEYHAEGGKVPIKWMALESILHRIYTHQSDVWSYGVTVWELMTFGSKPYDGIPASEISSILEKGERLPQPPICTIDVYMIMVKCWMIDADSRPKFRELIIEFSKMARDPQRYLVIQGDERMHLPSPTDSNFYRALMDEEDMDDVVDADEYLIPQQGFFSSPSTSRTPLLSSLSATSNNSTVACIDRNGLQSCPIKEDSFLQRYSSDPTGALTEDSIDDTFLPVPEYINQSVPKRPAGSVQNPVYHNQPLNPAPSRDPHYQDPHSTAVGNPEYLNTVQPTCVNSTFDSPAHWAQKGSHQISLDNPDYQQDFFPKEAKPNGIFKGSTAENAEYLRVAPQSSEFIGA
T2 sequence (P00533 with tags, fused parts or gaps DEL746-750): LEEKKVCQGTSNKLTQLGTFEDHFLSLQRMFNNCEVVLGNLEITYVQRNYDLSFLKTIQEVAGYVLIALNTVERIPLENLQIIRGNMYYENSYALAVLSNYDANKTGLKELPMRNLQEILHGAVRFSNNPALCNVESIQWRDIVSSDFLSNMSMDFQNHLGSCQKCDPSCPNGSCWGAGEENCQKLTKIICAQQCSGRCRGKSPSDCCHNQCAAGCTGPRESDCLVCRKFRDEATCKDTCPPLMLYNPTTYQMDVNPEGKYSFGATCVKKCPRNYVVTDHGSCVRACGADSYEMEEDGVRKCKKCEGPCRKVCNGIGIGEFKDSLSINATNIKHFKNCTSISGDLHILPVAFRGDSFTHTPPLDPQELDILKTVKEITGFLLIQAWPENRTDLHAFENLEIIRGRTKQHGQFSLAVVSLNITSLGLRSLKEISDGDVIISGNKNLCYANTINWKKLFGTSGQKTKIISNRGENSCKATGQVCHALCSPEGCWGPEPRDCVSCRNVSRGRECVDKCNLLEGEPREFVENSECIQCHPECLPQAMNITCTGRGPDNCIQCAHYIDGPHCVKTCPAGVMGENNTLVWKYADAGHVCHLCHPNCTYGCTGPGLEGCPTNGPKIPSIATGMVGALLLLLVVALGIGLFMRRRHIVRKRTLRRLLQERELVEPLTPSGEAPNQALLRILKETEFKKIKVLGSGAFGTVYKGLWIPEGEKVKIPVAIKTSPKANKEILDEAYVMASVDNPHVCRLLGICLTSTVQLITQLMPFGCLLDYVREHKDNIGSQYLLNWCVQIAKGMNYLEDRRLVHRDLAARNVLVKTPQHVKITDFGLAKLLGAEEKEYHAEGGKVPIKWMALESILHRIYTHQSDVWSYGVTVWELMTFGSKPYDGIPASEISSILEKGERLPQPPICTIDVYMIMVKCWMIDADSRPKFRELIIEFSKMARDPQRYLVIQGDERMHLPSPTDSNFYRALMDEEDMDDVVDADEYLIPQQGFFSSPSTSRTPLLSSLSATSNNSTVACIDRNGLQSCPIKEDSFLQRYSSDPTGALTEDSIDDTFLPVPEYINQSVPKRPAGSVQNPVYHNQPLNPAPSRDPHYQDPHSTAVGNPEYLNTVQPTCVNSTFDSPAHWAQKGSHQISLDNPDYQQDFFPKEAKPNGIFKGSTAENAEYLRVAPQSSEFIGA
T4 sequence (P00533 25-1210): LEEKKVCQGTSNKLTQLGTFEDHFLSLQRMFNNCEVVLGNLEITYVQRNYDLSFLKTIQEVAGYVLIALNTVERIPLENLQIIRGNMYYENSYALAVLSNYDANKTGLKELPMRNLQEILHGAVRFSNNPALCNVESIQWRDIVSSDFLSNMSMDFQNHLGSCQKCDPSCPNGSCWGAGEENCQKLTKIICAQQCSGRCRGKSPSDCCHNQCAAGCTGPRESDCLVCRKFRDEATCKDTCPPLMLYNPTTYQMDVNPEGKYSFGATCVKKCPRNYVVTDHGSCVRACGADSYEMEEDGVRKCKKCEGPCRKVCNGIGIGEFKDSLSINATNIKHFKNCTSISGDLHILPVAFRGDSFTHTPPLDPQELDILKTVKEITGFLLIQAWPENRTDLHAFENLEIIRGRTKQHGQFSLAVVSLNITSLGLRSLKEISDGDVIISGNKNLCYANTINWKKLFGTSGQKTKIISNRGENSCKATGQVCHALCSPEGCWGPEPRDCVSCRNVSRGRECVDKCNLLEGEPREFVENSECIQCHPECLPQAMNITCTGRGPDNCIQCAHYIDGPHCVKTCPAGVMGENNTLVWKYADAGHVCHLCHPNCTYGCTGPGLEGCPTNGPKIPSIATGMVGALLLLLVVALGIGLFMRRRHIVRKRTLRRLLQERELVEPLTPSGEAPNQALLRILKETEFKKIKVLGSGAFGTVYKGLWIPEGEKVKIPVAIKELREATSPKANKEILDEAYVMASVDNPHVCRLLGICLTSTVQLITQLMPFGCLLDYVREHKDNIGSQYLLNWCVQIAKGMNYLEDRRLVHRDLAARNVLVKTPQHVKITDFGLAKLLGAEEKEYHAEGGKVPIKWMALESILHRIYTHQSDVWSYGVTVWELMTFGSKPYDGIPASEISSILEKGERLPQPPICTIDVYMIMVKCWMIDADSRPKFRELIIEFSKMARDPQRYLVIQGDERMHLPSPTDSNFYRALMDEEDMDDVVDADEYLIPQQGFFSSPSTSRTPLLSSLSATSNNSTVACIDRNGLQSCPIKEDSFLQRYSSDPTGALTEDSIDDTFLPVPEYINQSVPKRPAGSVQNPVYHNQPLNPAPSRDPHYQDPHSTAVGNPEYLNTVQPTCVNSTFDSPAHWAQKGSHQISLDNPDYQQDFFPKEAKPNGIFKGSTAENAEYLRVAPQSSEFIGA
T3 sequence (P00533 25-1210 T790M/L858R): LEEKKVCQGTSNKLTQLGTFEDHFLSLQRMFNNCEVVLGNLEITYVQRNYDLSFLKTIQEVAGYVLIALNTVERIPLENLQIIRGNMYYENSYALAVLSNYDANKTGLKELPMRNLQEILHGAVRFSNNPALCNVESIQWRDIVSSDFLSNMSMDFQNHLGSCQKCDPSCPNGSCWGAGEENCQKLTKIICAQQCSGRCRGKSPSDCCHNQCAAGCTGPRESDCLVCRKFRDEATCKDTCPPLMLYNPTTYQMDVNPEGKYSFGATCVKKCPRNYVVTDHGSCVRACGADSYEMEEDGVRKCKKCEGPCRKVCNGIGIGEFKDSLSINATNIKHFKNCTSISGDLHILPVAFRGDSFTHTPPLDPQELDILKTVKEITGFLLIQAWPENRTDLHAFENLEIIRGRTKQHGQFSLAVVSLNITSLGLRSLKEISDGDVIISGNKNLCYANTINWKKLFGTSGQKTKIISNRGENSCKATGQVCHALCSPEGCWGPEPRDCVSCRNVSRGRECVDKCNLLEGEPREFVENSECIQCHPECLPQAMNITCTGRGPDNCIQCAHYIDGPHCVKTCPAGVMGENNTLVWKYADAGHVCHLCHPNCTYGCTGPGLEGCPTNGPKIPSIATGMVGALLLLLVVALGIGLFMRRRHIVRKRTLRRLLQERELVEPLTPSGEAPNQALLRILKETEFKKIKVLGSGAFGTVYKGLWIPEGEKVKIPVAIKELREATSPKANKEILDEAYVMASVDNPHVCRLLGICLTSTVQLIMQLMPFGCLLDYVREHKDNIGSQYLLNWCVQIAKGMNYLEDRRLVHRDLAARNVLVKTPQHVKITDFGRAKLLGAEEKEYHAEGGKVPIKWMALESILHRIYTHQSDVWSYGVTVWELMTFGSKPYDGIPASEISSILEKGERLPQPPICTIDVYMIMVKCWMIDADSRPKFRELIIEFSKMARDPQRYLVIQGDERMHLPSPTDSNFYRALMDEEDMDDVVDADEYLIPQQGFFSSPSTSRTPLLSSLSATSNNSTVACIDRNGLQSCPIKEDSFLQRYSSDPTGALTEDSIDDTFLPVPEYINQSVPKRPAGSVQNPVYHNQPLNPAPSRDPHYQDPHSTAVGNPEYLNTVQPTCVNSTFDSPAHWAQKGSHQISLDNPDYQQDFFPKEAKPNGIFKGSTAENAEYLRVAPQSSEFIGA

## CCc1cc(Nc2ncc(Br)c(Nc3ccc4nccnc4c3P(C)(C)=O)n2)c(OC)cc1N1CCC(N2CCN(CCc3ccc(C4CCC(=O)NC4=O)cc3)CC2)CC1 (centres unmarked) [Example 1, 3-(4-(2-(4-(1-(4-((5-bromo-4-((5-(dimethylphosphoryl)quinoxalin-6-yl)amino)pyrimidin-2-yl)amino)-2-ethyl-5-methoxyphenyl)piperidin-4-yl)piperazin-1-yl)ethyl)phenyl)piperidine-2,6-dione]
[1]
  Dmax: 89.3%
[2]
  DC50: 3.6 nM
  Dmax: 86.9%
[3]
  DC50: 7.22 nM
  Dmax: 60.8%
[4]; BaF3 WT, 16h treatment
  DC50: > 10000 nM
[4]; [6]
  Dmax: 49.2%

## CCc1cc(Nc2ncc(Br)c(Nc3ccc4nccnc4c3P(C)(C)=O)n2)c(OC)cc1N1CCC(N2CCN(CCc3ccc(C4CCC(=O)NC4=O)c(F)c3)CC2)CC1 (centres unmarked) [Example 5, 3-(4-(2-(4-(1-(4-((5-bromo-4-((5-(dimethylphosphoryl)quinoxalin-6-yl)amino)pyrimidin-2-yl)amino)-2-ethyl-5-methoxyphenyl)piperidin-4-yl)piperazin-1-yl)ethyl)-2-fluorophenyl)piperidine-2,6-dione]
[1]
  Dmax: 90.4%
  DC50: 13.1 nM
[5]; 16h treatment
  DTC Dmax (%): 96.75%
[5]; [7]
  DC50: 4.96 nM
[2]
  DC50: 2.56 nM
  Dmax: 83.9%
[3]
  DC50: 4.66 nM
  Dmax: 84.1%
[4]; BaF3 WT, 16h treatment
  DC50: > 10000 nM
[4]; [6]
  Dmax: 47.9%

## CCc1cc(Nc2ncc(Br)c(Nc3ccc4nccnc4c3P(C)(C)=O)n2)c(OC)cc1N1CCC(N2CCN(CCCCCc3ccc(C4CCC(=O)NC4=O)cc3)CC2)CC1 (centres unmarked) [Example 7, 3-(4-(5-(4-(1-(4-((5-bromo-4-((5-(dimethylphosphoryl)quinoxalin-6-yl)amino)pyrimidin-2-yl)amino)-2-ethyl-5-methoxyphenyl)piperidin-4-yl)piperazin-1-yl)pentyl)phenyl)piperidine-2,6-dione]
[1]
  Dmax: 90.5%
  DC50: 36.4 nM
[5]; 16h treatment
  DTC Dmax (%): 95.15%
[5]; [7]
  DC50: 18.2 nM
[2]
  DC50: 3.95 nM
  Dmax: 74.3%
[3]
  DC50: > 156 nM
  Dmax: 49%
[4]; BaF3 WT, 16h treatment
  DC50: > 10000 nM
[4]; [6]
  Dmax: 41.9%

## CCc1cc(Nc2ncc(Br)c(Nc3ccc4nccnc4c3P(C)(C)=O)n2)c(OC)cc1N1CCC(N2CCN(CCC3CCN(c4ccc(C5CCC(=O)NC5=O)cc4)CC3)CC2)CC1 (centres unmarked) [Example 23, 3-(4-(4-(2-(4-(1-(4-((5-bromo-4-((5-(dimethylphosphoryl)quinoxalin-6-yl)amino)pyrimidin-2-yl)amino)-2-ethyl-5-methoxyphenyl)piperidin-4-yl)piperazin-1-yl)ethyl)piperidin-1-yl)phenyl)piperidine-2,6-dione]
[1]
  Dmax: 89%
  DC50: 25.6 nM
[5]; 16h treatment
  DTC Dmax (%): 95.73%
[5]; [7]
  DC50: 13.3 nM
[2]
  DC50: 2.05 nM
  Dmax: 93.4%
[3]
  DC50: 14.1 nM
  Dmax: 65.5%
[4]; BaF3 WT, 16h treatment
  DC50: > 10000 nM
[4]; [6]
  Dmax: 14.6%

## CCc1cc(Nc2ncc(Br)c(Nc3ccc4nccnc4c3P(C)(C)=O)n2)c(OC)cc1N1CCC(N2CCN(CCC3CCN(c4ccc(C5CCC(=O)NC5=O)c(C#N)c4)CC3)CC2)CC1 (centres unmarked) [Example 34, 5-(4-(2-(4-(1-(4-((5-bromo-4-((5-(dimethylphosphoryl)quinoxalin-6-yl)amino)pyrimidin-2-yl)amino)-2-ethyl-5-methoxyphenyl)piperidin-4-yl)piperazin-1-yl)ethyl)piperidin-1-yl)-2-(2,6-dioxopiperidin-3-yl)benzonitrile]
[1]
  Dmax: 81.2%
  DC50: 21.6 nM
[5]; 16h treatment
  DTC Dmax (%): 82.04%
[5]; [7]
  DC50: 15.1 nM
[2]
  DC50: 6.2 nM
  Dmax: 80.8%
[3]
  DC50: 8.6 nM
  Dmax: 71%
[4]; BaF3 WT, 16h treatment
  DC50: > 10000 nM
[4]; [6]
  Dmax: 26.2%

## CCc1cc(Nc2ncc(Br)c(Nc3ccc4nccnc4c3P(C)(C)=O)n2)c(OC)cc1N1CCC(N2CCN(CCc3ccc(NC4CCC(=O)NC4=O)cc3)CC2)CC1 (centres unmarked) [Example 48, 3-((4-(2-(4-(1-(4-((5-bromo-4-((5-(dimethylphosphoryl)quinoxalin-6-yl)amino)pyrimidin-2-yl)amino)-2-ethyl-5-methoxyphenyl)piperidin-4-yl)piperazin-1-yl)ethyl)phenyl)amino)piperidine-2,6-dione]
[1]
  Dmax: 90.4%
  DC50: 24.3 nM
[5]; 16h treatment
  DTC Dmax (%): 92.6%
[5]; [7]
  DC50: 7.6 nM
[2]
  DC50: 4.42 nM
  Dmax: 76.6%
[3]
  DC50: 9.23 nM
  Dmax: 64.5%
[4]; BaF3 WT, 16h treatment
  DC50: 2920 nM
[4]; [6]
  Dmax: 52.6%

## CCc1cc(Nc2ncc(Br)c(Nc3ccc4nccnc4c3P(C)(C)=O)n2)c(OC)cc1N1CCC(N2CCN(C(=O)C3CCN(CC4CCN(c5ccc6c(c5)C(=O)N(C5CCC(=O)NC5=O)C6=O)CC4)CC3)CC2)CC1 (centres unmarked) [Example 63, 5-(4-((4-(4-(1-(4-((5-bromo-4-((5-(dimethylphosphoryl)quinoxalin-6-yl)amino)pyrimidin-2-yl)amino)-2-ethyl-5-methoxyphenyl)piperidin-4-yl)piperazine-1-carbonyl)piperidin-1-yl)methyl)piperidin-1-yl)-2-(2,6-dioxopiperidin-3-yl)isoindoline-1,3-dione]
[1]
  Dmax: 38.5%
  DC50: > 2000 nM
[5]; 16h treatment
  DTC Dmax (%): 52.42%
[5]; [7]
  DC50: 281 nM
[2]
  DC50: 1.74 nM
  Dmax: 86.3%
[4]; BaF3 WT, 16h treatment
  DC50: > 10000 nM
[4]; [6]
  Dmax: 3.27%

## CCc1cc(Nc2ncc(Br)c(Nc3ccc4nccnc4c3P(C)(C)=O)n2)c(OC)cc1N1CCC(N2CCN(CCC3CCN(c4ccc5c(c4)CN(C4CCC(=O)NC4=O)C5=O)CC3)CC2)CC1 (centres unmarked) [Example 70, 3-(5-(4-(2-(4-(1-(4-((5-bromo-4-((5-(dimethylphosphoryl)quinoxalin-6-yl)amino)pyrimidin-2-yl)amino)-2-ethyl-5-methoxyphenyl)piperidin-4-yl)piperazin-1-yl)ethyl)piperidin-1-yl)-1-oxoisoindolin-2-yl)piperidine-2,6-dione]
[1]
  Dmax: 95%
  DC50: 12.2 nM
[5]; 16h treatment
  DTC Dmax (%): 91.36%
[5]; [7]
  DC50: 8.49 nM
[4]; BaF3 WT, 16h treatment
  DC50: > 10000 nM
[4]; [6]
  Dmax: 26.1%

## CCc1cc(Nc2ncc(Br)c(Nc3ccc4nccnc4c3P(C)(C)=O)n2)c(OC)cc1N1CCC(N2CCN(CCN(C)c3ccc4c(c3)CN(C3CCC(=O)NC3=O)C4=O)CC2)CC1 (centres unmarked) [Example 71, 3-(5-((2-(4-(1-(4-((5-bromo-4-((5-(dimethylphosphoryl)quinoxalin-6-yl)amino)pyrimidin-2-yl)amino)-2-ethyl-5-methoxyphenyl)piperidin-4-yl)piperazin-1-yl)ethyl)(methyl)amino)-1-oxoisoindolin-2-yl)piperidine-2,6-dione]
[1]
  Dmax: 80%
  DC50: 11.5 nM
[5]; 16h treatment
  DTC Dmax (%): 81.19%
[5]; read-out: DTC DC50, 16h treatment
  DC50: 7.52 nM
[4]; BaF3, read-out: WT Dmax (%)
  Dmax: 31.4%
[4]; BaF3 WT, 16h treatment
  DC50: > 10000 nM
